Experimental data taken from patent publication US20240043450A1, “NEW COMPOUND” (JANSSEN PHARMACEUTICA NV, priority 2020, published 2024).

Tests used:
NLRP3 = target: T1, NLRP3 (Homo sapiens, UniProt Q96P20); experiment: PBMC assay: IL-1β levels in supernatant of LPS-stimulated human PBMCs (MSD); assay type: cell-based; details: 30 min compound pre-incubation, 100 ng/ml LPS for 6 hrs, IL-1β in supernatant, read-out: IL-1B IC50
T1 construct: human peripheral blood mononuclear cells (PBMCs) were isolated from blood; endogenous in cells; host or cells: primary human PBMCs from healthy donors
T1 sequence (Q96P20 whole entry): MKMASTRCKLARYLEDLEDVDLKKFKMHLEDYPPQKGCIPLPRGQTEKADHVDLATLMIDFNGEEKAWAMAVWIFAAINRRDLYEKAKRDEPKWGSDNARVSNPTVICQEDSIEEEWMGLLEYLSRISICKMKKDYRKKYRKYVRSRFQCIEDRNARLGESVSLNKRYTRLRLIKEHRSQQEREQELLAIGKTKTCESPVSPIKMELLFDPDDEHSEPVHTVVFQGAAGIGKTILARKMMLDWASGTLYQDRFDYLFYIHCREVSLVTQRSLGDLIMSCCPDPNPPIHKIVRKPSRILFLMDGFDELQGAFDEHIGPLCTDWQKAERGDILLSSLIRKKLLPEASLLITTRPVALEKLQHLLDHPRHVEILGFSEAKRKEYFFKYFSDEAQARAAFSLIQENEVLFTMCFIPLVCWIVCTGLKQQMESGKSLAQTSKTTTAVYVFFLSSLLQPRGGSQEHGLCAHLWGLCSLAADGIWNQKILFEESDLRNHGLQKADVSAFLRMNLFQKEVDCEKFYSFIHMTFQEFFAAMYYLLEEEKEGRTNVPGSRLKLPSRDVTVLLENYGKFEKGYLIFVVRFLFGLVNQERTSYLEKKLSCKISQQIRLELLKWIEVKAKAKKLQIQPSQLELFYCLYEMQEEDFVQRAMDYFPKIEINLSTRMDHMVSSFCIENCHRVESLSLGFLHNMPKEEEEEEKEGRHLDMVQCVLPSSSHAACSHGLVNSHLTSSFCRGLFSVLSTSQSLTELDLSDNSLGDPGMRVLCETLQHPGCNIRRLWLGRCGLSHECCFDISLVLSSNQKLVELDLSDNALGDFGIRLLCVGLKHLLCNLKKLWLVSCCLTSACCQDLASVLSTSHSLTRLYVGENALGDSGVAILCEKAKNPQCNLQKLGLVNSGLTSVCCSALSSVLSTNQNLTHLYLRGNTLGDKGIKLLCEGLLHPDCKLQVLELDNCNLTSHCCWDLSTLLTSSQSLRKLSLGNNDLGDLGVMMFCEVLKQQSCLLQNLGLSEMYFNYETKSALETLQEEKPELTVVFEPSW
Protocol: The activity of a compound according to the present invention can be assessed by in vitro methods.
Peripheral venous blood was collected from healthy individuals and human peripheral blood mononuclear cells (PBMCs) were isolated from blood by Ficoll-Histopaque (Sigma-Aldrich, A0561) density gradient centrifugation. After isolation, PBMCs were stored in liquid nitrogen for later use. Upon thawing, PBMC cell viability was determined in growth medium (RPMI media supplemented with 10% fetal bovine serum, 1% Pen-Strep and 1% L-glutamine). […] PBMCs were added at a density of 7.5×10^4 cells per well and incubated for 30 min in a 5% CO2 incubator at 37° C. LPS stimulation was performed by addition of 100 ng/ml LPS (final concentration, Invivogen, tlrl-smlps) for 6 hrs followed by collection of cellular supernatant and the analysis of IL-1β […] and TNF cytokines levels […] via MSD technology according to manufacturers' guidelines (MSD, K15A0H).

TNF = experiment: PBMC assay: TNF cytokine levels in supernatant of LPS-stimulated human PBMCs (MSD); assay type: cell-based; details: Homo sapiens, PBMC, 30 min compound pre-incubation, 100 ng/ml LPS for 6 hrs
Protocol: Peripheral venous blood was collected from healthy individuals and human peripheral blood mononuclear cells (PBMCs) were isolated from blood by Ficoll-Histopaque (Sigma-Aldrich, A0561) density gradient centrifugation. After isolation, PBMCs were stored in liquid nitrogen for later use. Upon thawing, PBMC cell viability was determined in growth medium (RPMI media supplemented with 10% fetal bovine serum, 1% Pen-Strep and 1% L-glutamine). Compounds were spotted in a 1:3 serial dilution in DMSO and diluted to the final concentration in 30 μl medium in 96 well plates (Falcon, 353072). PBMCs were added at a density of 7.5×10^4 cells per well and incubated for 30 min in a 5% CO2 incubator at 37° C. LPS stimulation was performed by addition of 100 ng/ml LPS (final concentration, Invivogen, tlrl-smlps) for 6 hrs followed by collection of cellular supernatant and the analysis of IL-1β […] and TNF cytokines levels […] via MSD technology according to manufacturers' guidelines (MSD, K15A0H).
The IC50 values (for IL-1β) and EC50 values (TNF) were obtained on compounds of the invention/examples, and are depicted in the following table: […]

IC50 (NLRP3) | EC50 (TNF) | melting point | Structure (SMILES)
907 nM | 17400 nM | 170.1 °C | CC(C)c1nn(CC(=O)Nc2ccc(C(F)F)nc2)c(=O)c2sc(C3CC3)nc12 [F-45]
462 nM | > 20000 nM | 223.8 °C | CC(C)c1nn(CC(=O)Nc2ccc3nnc(C(F)(F)F)n3n2)c(=O)c2sc(C3CC3)nc12 [F-49, 2-(2-cyclopropyl-4-isopropyl-7-oxo-thiazolo[4,5-d]pyridazin-6-yl)-N-[3-(trifluoromethyl)-[1,2,4]triazolo[4,3-b]pyridazin-6-yl]acetamide]
150 nM | ~17300 nM | 248.3 °C | O=C(Cn1nc(C2CC2)c2nc(C3CC3)sc2c1=O)Nc1ccc2nncn2n1 [F-54]
443 nM | > 20000 nM | 292.7 °C | CC(C)c1nn(CC(=O)Nc2cc(F)[nH]c(=O)c2)c(=O)c2sc(C3CC3)nc12 [F-55]
69 nM | 2160 nM | 201.7 °C | CC(C)c1nn(CC(=O)Nc2ccc3nccn3n2)c(=O)c2sc(C3CC3)nc12 [F-59]

The next lines start with the compound.

Structure (SMILES) | IC50 (NLRP3) | EC50 (TNF) | melting point
CC(C)c1nn(CC(=O)Nc2ccc(=O)n(C)c2)c(=O)c2sc(C3CC3)nc12 [F-46] | 137 nM | > 20000 nM | 240.9 °C
CC(C)c1nn(CC(=O)Nc2cc(Cl)c(=O)n(C(F)F)c2)c(=O)c2sc(C3CC3)nc12 [F-48] | 1450 nM | 17900 nM | 206.7 °C
CC(C)c1nn(CC(=O)Nc2cc(C(F)(F)F)ncn2)c(=O)c2sc(C3CC3)nc12 [F-50] | > 20000 nM | > 20000 nM | 172 °C
CC(C)c1nn(CC(=O)Nc2ccc3nccn3n2)c(=O)c2sc(C(C)(F)F)nc12 [F-53] | 215 nM | 11900 nM | 206.5 °C
Cc1nnc2ccc(NC(=O)Cn3nc(C(C)C)c4nc(C5CC5)sc4c3=O)nn12 [F-56] | 110 nM | 10800 nM | 250 °C
CC(C)c1nn(CC(=O)Nc2ccc3nncn3n2)c(=O)c2sc(C3CC3)nc12 [F-57] | 19 nM | 4890 nM | 245.4 °C
